In patent publication US20040086901A1, “Database for analyzing gene function and method of analyzing gene function by dspa” (priority 2000, published 2004):

What was measured:
Assay type in all cases: cell-based, mouse
[1] = test system: NIH3T3 cells overexpressing Ha-ras; experiment: MTT cell viability, drug sensitivity of Ha-ras overexpressing cells vs parental line; settings: Ha-ras high-expressing cells / parental cell line, 3 to 4 days
Method: (§1) With regard to the function-known genes, the genes shown in the left column of Table 2 were used. With regard to the drugs, those shown in Table 1 were dissolved in DMSO to an extent of 100-fold of the maximum concentration for the search of the drugs and used. With regard to the cells, incubated NIH3T3 or ras-NIH3T3 cells were used.
(§2) Full-length cDNA of each function-known genes was incorporated into an expression vector (pRc-CMV, etc.) and transfected into NIH3T3 cells by a common method. Transformed cells were isolated using the resistance to G-418 as an index and the expression of the transfected gene in each cell was investigated by Western blotting method to select a highly expressing line.
(§3) Cell viabilities were measured according to the following procedures.
(§4) 1) From the 2nd to the 11th rows of a 96-well plate were filled with DMEM (50 μl). The 12th row was filled with 100 μl of DMEM.
(§5) 2) The 1st row was filled with 98 μl of DMEM.
(§6) 3) Drugs (2 μl each) were added into the 1st row.
(§7) 4) Continuous double-dilution was conducted from the 1st to the 9th rows. Fifty μl were taken out from the 9th row and discarded. The plate was preserved in a CO2 incubator.
(§8) 5) Cells (each high-expressing cells and the parental cell line) were detached from the medium using a trypsin solution, suspended in 10% CS-DMEM and transferred to a test tube and cell numbers (cell/ml) were counted.
(§9) 6) The cells were diluted to a concentration of 1×10^5 cells/ml, and 50 μl of the cell suspension were added to the 1st to the 11th rows of the plate followed by gently stirring.
(§10) 7) The plate was transferred to the CO2 incubator and incubated for 3 to 4 days.
(§11) 8) MTT (5 mg/ml in PBS) (10 μl) was added to the 1st to the 12th rows of the plate and incubated in the CO2 incubator at 37° C. for 4 hours.
(§12) 9) A reaction stop solution (0.04N HCl in isopropanol) (150 μl) was added followed by mixing well and being allowed to stand at room temperature for about 2 hours.
(§13) 10) Coloration of formazan which was a metabolite of the MTT dye was measured using a microplate reader. The measurement wavelength was 574 nm and the reference wavelength was 655 nm. The 10th and the 11th rows of the plate were 100% controls and the 12th row was a 0% control.
(§14) As an index for the sensitivity of highly gene-expressing cells and the parental cell line to various drugs, each of the IC40 values thereof was specified and ratios of the IC40 values were calculated. […] After that, logarithmic values of ratios of IC40 values were calculated from each gene.

[2] = test system: NIH3T3 cells overexpressing v-src; experiment: MTT cell viability, v-src overexpressing cells vs parental line; settings: v-src high-expressing cells / parental cell line, 3 to 4 days
Method: as §1, §2, §3, §4, §5, §6, §7, §8, §9, §10, §11, §12, §13
(§15) As an index for the sensitivity of highly gene-expressing cells and the parental cell line to various drugs, each of the IC40 values thereof was specified and ratios of the IC40 values were calculated. FIG. 2 and FIG. 3 are the examples where ratios of IC40 values were calculated from a curve showing the dependency on the concentration of the chemical versus the viability. After that, logarithmic values of ratios of IC40 values were calculated from each gene.

[3] = test system: NIH3T3 cells overexpressing erbB2; experiment: MTT cell viability, erbB2 overexpressing cells vs parental line; settings: erbB2 high-expressing cells / parental cell line, 3 to 4 days
Method: as §1, §2, §3, §4, §5, §6, §7, §8, §9, §10, §11, §12, §13, §15

[4] = test system: NIH3T3 cells overexpressing p16/INK4A; experiment: MTT cell viability, p16/INK4A overexpressing cells vs parental line; settings: p16/INK4A high-expressing cells / parental cell line, 3 to 4 days
Method: as §1, §2, §3, §4, §5, §6, §7, §8, §9, §10, §11, §12, §13, §15

[5] = test system: NIH3T3 cells overexpressing m-calpain; experiment: MTT cell viability, m-calpain overexpressing cells vs parental line; settings: m-calpain high-expressing cells / parental cell line, 3 to 4 days
Method: as §1, §2, §3, §4, §5, §6, §7, §8, §9, §10, §11, §12, §13, §14

[6] = test system: NIH3T3 cells overexpressing cAMP-PK-CS; experiment: MTT cell viability, cAMP-PK-CS overexpressing cells vs parental line; settings: cAMP-PK-CS high-expressing cells / parental cell line, 3 to 4 days
Method: as §1, §2, §3, §4, §5, §6, §7, §8, §9, §10, §11, §12, §13, §14

[7] = test system: NIH3T3 cells overexpressing CP-antisense; experiment: MTT cell viability, CP-antisense cells vs parental line; settings: 3 to 4 days
Method: as §1, §2, §3, §4, §5, §6, §7, §8, §9, §10, §11, §12, §13, §15

[8] = test system: NIH3T3 cells overexpressing DAN; experiment: MTT cell viability, DAN overexpressing cells vs parental line; settings: DAN high-expressing cells / parental cell line, 3 to 4 days
Method: as §1, §2, §3, §4, §5, §6, §7, §8, §9, §10, §11, §12, §13, §15

[9] = test system: NIH3T3 cells overexpressing Regucalcin; experiment: MTT cell viability, Regucalcin overexpressing cells vs parental line; settings: Regucalcin high-expressing cells / parental cell line, 3 to 4 days
Method: as §1, §2, §3, §4, §5, §6, §7, §8, §9, §10, §11, §12, §13, §15

[10] = test system: NIH3T3 cells overexpressing caspase-3; experiment: MTT cell viability, caspase-3 overexpressing cells vs parental line; settings: caspase-3 high-expressing cells / parental cell line, 3 to 4 days
Method: as §1, §2, §3, §4, §5, §6, §7, §8, §9, §10, §11, §12, §13, §14

[11] = test system: NIH3T3 cells overexpressing RhoA; experiment: MTT cell viability, RhoA overexpressing cells vs parental line; settings: RhoA high-expressing cells / parental cell line, 3 to 4 days
Method: as §1, §2, §3, §4, §5, §6, §7, §8, §9, §10, §11, §12, §13, §15

[12] = test system: NIH3T3 cells overexpressing PDGF-R; experiment: MTT cell viability, PDGF-R overexpressing cells vs parental line; settings: PDGF-R high-expressing cells / parental cell line, 3 to 4 days
Method: as §1, §2, §3, §4, §5, §6, §7, §8, §9, §10, §11, §12, §13, §15

[13] = test system: NIH3T3 cells overexpressing Gluco-corticoid-R; experiment: MTT cell viability, Gluco-corticoid-R overexpressing cells vs parental line; settings: Gluco-corticoid-R high-expressing cells / parental cell line, 3 to 4 days
Method: as §1, §2, §3, §4, §5, §6, §7, §8, §9, §10, §11, §12, §13, §14

[14] = test system: NIH3T3 cells overexpressing PKCalpha-KN; experiment: MTT cell viability, PKCalpha-KN overexpressing cells vs parental line; settings: 3 to 4 days
Method: as §1, §2, §3, §4, §5, §6, §7, §8, §9, §10, §11, §12, §13, §14

[15] = test system: NIH3T3 cells, TPA (PKC downreg); experiment: MTT cell viability, TPA (PKC downreg) cells vs parental line; settings: 3 to 4 days
Method: as §1, §2, §3, §4, §5, §6, §7, §8, §9, §10, §11, §12, §13, §15

[16] = test system: NIH3T3 cells overexpressing ERK-DN; experiment: MTT cell viability, ERK-DN overexpressing cells vs parental line; settings: ERK-DN high-expressing cells / parental cell line, 3 to 4 days
Method: as §1, §2, §3, §4, §5, §6, §7, §8, §9, §10, §11, §12, §13, §14

[17] = test system: NIH3T3 cells overexpressing JNK-DN; experiment: MTT cell viability, JNK-DN overexpressing cells vs parental line; settings: JNK-DN high-expressing cells / parental cell line, 3 to 4 days
Method: as §1, §2, §3, §4, §5, §6, §7, §8, §9, §10, §11, §12, §13, §15

[18] = test system: NIH3T3 cells overexpressing HSP4O; experiment: MTT cell viability, HSP4O overexpressing cells vs parental line; settings: HSP4O high-expressing cells / parental cell line, 3 to 4 days
Method: as §1, §2, §3, §4, §5, §6, §7, §8, §9, §10, §11, §12, §13, §15

[19] = test system: NIH3T3 cells overexpressing HSP9O; experiment: MTT cell viability, HSP9O overexpressing cells vs parental line; settings: HSP9O high-expressing cells / parental cell line, 3 to 4 days
Method: as §1, §2, §3, §4, §5, §6, §7, §8, §9, §10, §11, §12, §13, §15

[20] = test system: NIH3T3 cells overexpressing CaMKIIa; experiment: MTT cell viability, CaMKIIa overexpressing cells vs parental line; settings: CaMKIIa high-expressing cells / parental cell line, 3 to 4 days
Method: as §1, §2, §3, §4, §5, §6, §7, §8, §9, §10, §11, §12, §13, §14

[21] = PKCalpha-KN (first of two lines) high-expressing cells / parental cell line
[22] = PKCalpha-KN (second of two lines) high-expressing cells / parental cell line

SMILES | logarithmic value of ratio of IC40 values [1] | logarithmic value of ratio of IC40 values [2] | logarithmic value of ratio of IC40 values [3] | logarithmic value of ratio of IC40 values [4] | logarithmic value of ratio of IC40 values [5] | logarithmic value of ratio of IC40 values [6] | logarithmic value of ratio of IC40 values [7] | logarithmic value of ratio of IC40 values [8] | logarithmic value of ratio of IC40 values [9] | logarithmic value of ratio of IC40 values [10] | logarithmic value of ratio of IC40 values [11] | logarithmic value of ratio of IC40 values [12] | logarithmic value of ratio of IC40 values [13] | logarithmic value of ratio of IC40 values [14, 21] | logarithmic value of ratio of IC40 values [14, 22] | logarithmic value of ratio of IC40 values [15] | logarithmic value of ratio of IC40 values [16] | logarithmic value of ratio of IC40 values [17] | logarithmic value of ratio of IC40 values [18] | logarithmic value of ratio of IC40 values [20] | further results
COc1ccc2c(c1)CC[C@@H]1[C@@H]2CC[C@]2(C)[C@@H](NCCCCCCN3C(=O)C=CC3=O)CC[C@@H]12 [U73122] | −0.19 | −0.59 | −0.96 | 0.28 | −0.14 | −0.18 | −0.10 | 0.36 | −0.66 | 0.53 | 0.12 | −0.11 | 0.05 | −0.33 | −0.97 | −0.12 | 0.00 | −0.07 | −0.20 | −0.05 | logarithmic value of ratio of IC40 values [19]: 0.18
C/C=C(/C)C(=O)O[C@H]1C(C)=C2[C@H]([C@@H]1OC(=O)CCCCCCC)[C@@](C)(OC(C)=O)C[C@H](OC(=O)CCC)[C@@]1(O)[C@H]2OC(=O)[C@@]1(C)O [Thapsigargin, thapsigargin] | 0.00 | 0.32 | 0.11 | −0.64 | 0.05 | 0.05 | −0.30 | 0.18 | 0.20 | −0.17 | 0.26 | 0.29 | 0.20 | 0.10 | 0.12 | −0.23 | −0.15 | 0.24 | 0.18 | 0.09 | logarithmic value of ratio of IC40 values [19]: 0.09
CN(C)CCCn1cc(C2=C(c3c[nH]c4ccccc34)C(=O)NC2=O)c2ccccc21 [GF109203X] | −0.39 | −0.29 | −0.40 | 0.48 | 0.35 | 0.27 | 0.00 | 0.65 | −0.05 | 0.82 | 0.24 | 0.00 | 0.27 | 0.22 | 0.62 | 0.09 | 0.48 | 0.58 | −0.07 | 0.04 | 
O=CN/C=C/c1cc(O)ccc1O [Erbstatin, erbstatin] | 0.08 | −0.05 | −0.05 | 0.51 | 0.00 | 0.05 | 0.06 | 0.20 | 0.00 | −0.10 | 0.14 |  | 0.06 |  | 0.00 | 0.00 | 0.13 | 0.11 | 0.00 | 0.14 | logarithmic value of ratio of IC40 values [19]: 0.26
